In patent US20260001914A1, “MACROCYCLIC PEPTIDES TARGETING KRAS” (Merck Sharp & Dohme LLC, priority 2022, published 2026):
*1 amine or outer side, *2 acyl side, *3 side chain or, on linkers, in order; H or OH if unused. Where a SMILES comes first, the peptide text is derived from it. Bridges are numbered along the chain shown (N, C = ends). [ ]: non-standard residue; d: D form. Phe(4-guanidino) = N=C(N)Nc1ccc(C[C@H](N)C(=O)O)cc1; Ala(pyrimidin-5-yl) = N[C@@H](Cc1cncnc1)C(=O)O; X45 = CN([C@@H](Cc1ccncc1F)C(=O)[*:2])[*:1]; NMeHis(τ-Me) = CN[C@@H](Cc1cn(C)cn1)C(=O)O; X37 = O=C([C@H](Cc1cnc(F)cc1F)N[*:1])[*:2]; X7 = C[C@H](N[*:1])C12CC(C(=O)[*:2])(C1)C2; X25 = O=C([C@H](Cc1ccc(F)nc1)N[*:1])[*:2]; X26 = Cn1cc(C[C@H](N[*:1])C(=O)[*:2])cn1; Phe(2-F) = N[C@@H](Cc1ccccc1F)C(=O)O; X70 = O=C(C1CC2(C1)CN([*:1])C2)[*:2]; NMe3Pal = CN[C@@H](Cc1cccnc1)C(=O)O; X1 = O=C(C12CC(CN[*:1])(C1)C2)[*:2]; Ala(cPr) = N[C@@H](CC1CC1)C(=O)O; NMeF = CN[C@@H](Cc1ccccc1)C(=O)O; PhLac = O=C(O)[C@@H](O)Cc1ccccc1; 3Pal = N[C@@H](Cc1cccnc1)C(=O)O; Ahp(2) = CCCCC[C@H](N)C(=O)O; Cba = N[C@@H](CC1CCC1)C(=O)O; hLeu = CC(C)CC[C@H](N)C(=O)O; αMeC = C[C@](N)(CS)C(=O)O; NMeA = CN[C@@H](C)C(=O)O; Nle = CCCC[C@H](N)C(=O)O; AEEA = NCCOCCOCC(=O)O

Molecular target: KRAS-G12D protein (Homo sapiens, UniProt P01116, G12D)
Test: SOS-mediated nucleotide exchange assay (BODIPY-GDP / Tb-streptavidin TR-FRET)
Format: biochemical
Details: not given

KRAS-G12D protein, sequence (P01116 1-188 isoform P01116-2 G12D): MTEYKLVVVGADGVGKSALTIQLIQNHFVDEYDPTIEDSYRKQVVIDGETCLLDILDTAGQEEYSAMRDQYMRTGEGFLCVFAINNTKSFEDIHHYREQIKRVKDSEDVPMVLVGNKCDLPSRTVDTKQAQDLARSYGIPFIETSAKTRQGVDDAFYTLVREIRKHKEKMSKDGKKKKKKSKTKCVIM

Row | Structure (SMILES) | EC50 [nM]
1 | CCCC[C@@H]1NC(=O)[C@H](Cc2cccnc2)NC(=O)[C@H](C)N(C)C(=O)[C@H](Cc2ccc(F)nc2)NC(=O)C23CC(CNC(=O)[C@H](Cc4cccnc4)N(C)C(=O)[C@H](CCCC)NC(=O)[C@H](Cc4ccccc4F)NC1=O)(C2)C3 [compound 165, cyclo(4F3Pal-NMeA-3Pal-Nle-Phe2F-Nle-NMe3Pal-amBCP)] (cyclo([3Pal][Nle][Phe(2-F)][Nle][NMe3Pal][X1][X25][NMeA])) | 1780
2 | CCCCC[C@@H]1NC(=O)[C@H](Cc2ccc(O)cc2)NC(=O)[C@H](CC(C)C)NC(=O)[C@H](Cc2ccc(O)cc2)NC(=O)[C@H](CCCNC(=N)N)NC(=O)[C@H](Cc2ccccc2)NC(=O)CSC[C@@H](C(=O)NCCOCCOCC(=O)NCCOCCOCC(N)=O)NC(=O)[C@H](Cc2ccccc2)N(C)C1=O [compound 58, cyclo(F-R-Y-L-Y-Ahp-NMeF-C4-ClAc)] ({CH2CO}-FRYLY[Ahp(2)][NMeF]C[AEEA][AEEA]-NH2; thioether N-8) | 436
3 | CC(C)CC[C@@H]1NC(=O)[C@H](Cc2cnc(F)cc2F)NC(=O)[C@H](CC2CC2)NC(=O)[C@H](Cc2cncnc2)NC(=O)[C@H](C)N(C)C(=O)[C@H](Cc2ccccc2)OC(=O)C23CC(CNC(=O)[C@H](Cc4ccccc4)N(C)C1=O)(C2)C3 [compound 294, cyclo(FLac-NMeA-PyrimAla-cPrA-3Pal46F2-hL-NMeF-amBCP)] (cyclo([Ala(cPr)][X37][hLeu][NMeF][X1][PhLac][NMeA][Ala(pyrimidin-5-yl)])) | 7
4 | CCCC[C@@H]1NC(=O)[C@H](Cc2ccc(OC)cc2)NC(=O)[C@H](CC2CCC2)NC(=O)[C@H](Cc2cccnc2)NC(=O)[C@H](CCCNC(=N)N)NC(=O)[C@H](Cc2ccccc2)NC(=O)C2CC3(C2)CN(C3)C(=O)[C@H](Cc2ccccc2)N(C)C1=O [compound 102, cyclo(F-R-3Pal-cBuA-TyrOMe-Nlc-NMeF-spiro44)] (cyclo(FR[3Pal][Cba]Y(Me)[Nle][NMeF][X70])) | 7340
5 | CCCCC[C@@H]1NC(=O)[C@H](Cc2ccc(OC)cc2)NC(=O)[C@H](CC2CCC2)NC(=O)[C@H](Cc2ccc(C)nc2)NC(=O)[C@H](CCCNC(=N)N)NC(=O)[C@H](Cc2ccccc2)NC(=O)CSC[C@@](C)(C(N)=O)NC(=O)[C@H](Cc2ccccc2)N(C)C1=O [compound 364, cyclo(F-R-4Me3Pal-cBuA-TyrOMe-Ahp-NMeF-aMeCl-ClAc)] | 33.5
6 | CCCC[C@@H]1NC(=O)[C@H](Cc2cnn(C)c2)NC(=O)[C@H](C)N(C)C(=O)[C@H](Cc2ccccc2)OC(=O)C23CC(CNC(=O)[C@H](Cc4cccnc4)N(C)C(=O)[C@H](CCCC)NC(=O)[C@H](Cc4ccccc4F)NC1=O)(C2)C3 [compound 400, cyclo(FLac-NMeA-Ala4PyzlMe-Nle-Phe2F-Nle-NMe3Pal-amBCP)] (cyclo([NMe3Pal][X1][PhLac][NMeA][X26][Nle][Phe(2-F)][Nle])) | 14
7 | CCCC[C@@H]1NC(=O)[C@H](Cc2cncnc2)NC(=O)[C@H](C)N(C)C(=O)[C@H](Cc2ccccc2)OC(=O)C23CC(CNC(=O)[C@H](Cc4ccccc4)N(C)C(=O)[C@H](CCC(C)C)NC(=O)[C@H](Cc4ccccc4F)NC1=O)(C2)C3 [compound 132, cyclo(FLac-NMeA-PyrimAla-Nle-Phe2F-hL-NMeF-amBCP)] (cyclo([NMeA][Ala(pyrimidin-5-yl)][Nle][Phe(2-F)][hLeu][NMeF][X1][PhLac])) | 7.87
8 | CCCC[C@@H]1NC(=O)[C@H](Cc2ccccc2)NC(=O)[C@H](C)N(C)C(=O)[C@H](Cc2ccccc2)OC(=O)C23CC(CNC(=O)[C@H](Cc4ccccc4)N(C)C(=O)[C@H](CCCC)NC(=O)[C@H](Cc4ccccc4F)NC1=O)(C2)C3 [compound 305, cyclo(FLac-NMeA-F-Nle-Phe2F-Nle-NMeF-amBCP)] (cyclo(F[Nle][Phe(2-F)][Nle][NMeF][X1][PhLac][NMeA])) | 1790
9 | CCCC[C@@H]1NC(=O)[C@H](Cc2ccc(O)cc2)NC(=O)[C@H](CC(C)C)NC(=O)[C@H](Cc2ccc(O)cc2)NC(=O)[C@H](CCCNC(=N)N)NC(=O)[C@H](Cc2ccccc2)NC(=O)CSCCNC(=O)[C@H](Cc2ccccc2)N(C)C1=O [compound 69, cyclo(F-R-Y-L-Y-Nle-NMeF-Cysteamine-ClAc)] | 1470
10 | CCCC[C@@H]1NC(=O)[C@H](Cc2cncnc2)NC(=O)[C@H](C)N(C)C(=O)[C@H](Cc2ccccc2)OC(=O)C23CC(C2)(C3)[C@H](C)NC(=O)[C@H](Cc2cccnc2)N(C)C(=O)[C@H](CCCC)NC(=O)[C@H](Cc2ccccc2F)NC1=O [compound 121, cyclo(FLac-NMeA-PyrimAla-Nle-Phe2F-Nle-NMe3Pal-SMeamBCP)] (cyclo([NMe3Pal][X7][PhLac][NMeA][Ala(pyrimidin-5-yl)][Nle][Phe(2-F)][Nle])) | 33.5
11 | CCCCC[C@@H]1NC(=O)[C@H](Cc2ccc(O)cc2)NC(=O)[C@H](CC(C)C)NC(=O)[C@H](Cc2ccc(O)cc2)NC(=O)[C@H](CCCNC(=N)N)NC(=O)[C@H](Cc2ccccc2)NC(=O)CSC[C@@H](C(=O)NCC(=O)N[C@@H](CCCCN)C(=O)N[C@@H](CCCCN)C(N)=O)NC(=O)[C@H](Cc2ccccc2)N(C)C1=O [compound 56, cyclo(F-R-Y-L-Y-Ahp-NMeF-C2-ClAc)] ({CH2CO}-FRYLY[Ahp(2)][NMeF]CGKK-NH2; thioether N-8) | 534
12 | CC(C)CC[C@@H]1NC(=O)[C@H](Cc2ccccc2F)NC(=O)[C@H](CC2CC2)NC(=O)[C@H](Cc2cncnc2)NC(=O)[C@H](C)N(C)C(=O)[C@H](Cc2ccccc2)OC(=O)C23CC(CNC(=O)[C@H](Cc4ccncc4F)N(C)C1=O)(C2)C3 [compound 337, cyclo(FLac-NMeA-PyrimAla-cPrA-Phe2F-hL-NMe4Pal2F-amBCP)] (cyclo([Ala(cPr)][Phe(2-F)][hLeu][X45][X1][PhLac][NMeA][Ala(pyrimidin-5-yl)])) | 3
13 | CCC[C@@H]1NC(=O)[C@H](Cc2ccc(O)cc2)NC(=O)[C@H](CC(C)C)NC(=O)[C@H](Cc2ccc(O)cc2)NC(=O)[C@H](CCCNC(=N)N)NC(=O)[C@H](Cc2ccccc2)NC(=O)CCCNC(=O)[C@H](Cc2ccccc2)N(C)C1=O [compound 161, cyclo(F-R-Y-L-Y-Nva-NMeF-C4NH2acid)] | 2840
14 | CCCCC[C@@H]1NC(=O)[C@H](Cc2ccc(OC)cc2)NC(=O)[C@H](CC2CCC2)NC(=O)[C@H](Cc2cccnc2)NC(=O)[C@H](CCCNC(=N)N)NC(=O)[C@H](Cc2ccccc2)NC(=O)CSC[C@@](C)(C(N)=O)NC(=O)[C@H](Cc2cn(C)cn2)N(C)C1=O [compound 378, cyclo(F-R-3Pal-cBuA-TyrOMe-Ahp-NMeHis1Me-aMeCl-ClAc)] ({CH2CO}-FR[3Pal][Cba]Y(Me)[Ahp(2)][NMeHis(τ-Me)][αMeC]-NH2; thioether N-8) | 45.2
15 | CCCCC[C@@H]1NC(=O)[C@H](Cc2ccc(OC)cc2)NC(=O)[C@H](CCCC)NC(=O)[C@H](Cc2ccc(NC(=N)N)cc2)NC(=O)[C@H](CCCNC(=N)N)NC(=O)[C@H](Cc2ccccc2)NC(=O)CSC[C@H](C(N)=O)NC(=O)[C@H](Cc2ccccc2)N(C)C1=O [compound 350, cyclo(F-R-Phe4Gn-Nle-TyrOMe-Abp-NMeF-dCl-ClAc)] ({CH2CO}-FR[Phe(4-guanidino)][Nle]Y(Me)[Ahp(2)][NMeF][dC]-NH2; thioether N-8) | 35.4

Same assay, conditions: listed as 189

Row | Structure (SMILES) | EC50 [nM]
16 | COc1ccc(C[C@@H]2NC(=O)[C@H](CC3CCC3)NC(=O)[C@H](Cc3cccnc3)NC(=O)[C@H](CCCNC(=N)N)NC(=O)[C@H](Cc3ccccc3)NC(=O)CSC[C@](C)(C(N)=O)NC(=O)[C@@H]3CCCCCCC[C@H](NC2=O)C(=O)N3C)cc1 (single isomer, unassigned) [SEQ ID NO: 189] | 1560
